Legend:
[1] = system: T1, Ab1 fibrils; test: Fibril incubation with plasma, quantitative MS/MS of bound proteins; format: binding, human; details: 50:1 w/w plasma protein:fibril
T1 construct: Synthetic amyloid β peptide 1–40 was purchased from Caslo Aps (Lyngby, Denmark); purchased Caslo Aps (Lyngby, Denmark); host or cells: synthetic peptide
Method: (§1) Plasma and CSF solutions were centrifuged (40,000 g, 20 min) to remove any aggregates. The protein concentration was determined using 280 nm absorbance assuming 1 Abs = 1 mg/mL. Samples with fibril material (20 μg), plasma (500 μg) or CSF (40 μg) proteins were prepared in 200 μL PBS buffer with 5 mM EDTA. Control samples (without fibril material) were prepared similarly. All samples were incubated at room temperature for one hour under gentle agitation. Fibrils and fibril-bound proteins were pelleted by centrifugation at 17,000 g for 30 minutes. The supernatant (175 μL) was removed and the aggregate was re-suspended in 175 μL PBS and pelleted again before further preparation for gel analysis and spin-filter assisted digest for quantitative MS/MS.
(§2) The fibril-protein pellets were transferred to spin-filters (0.22 μm), washed twice in PBS (100 μL) and once in 1 M NaCl (100 μL). The fibrils and fibril-bound proteins were dissolved by one-hour incubation in 100 μL 6 M guanidinium chloride followed by elution from the spin-filter. The eluted proteins were loaded onto a 3 kDa MWCO filter unit for filter-assisted unfolding, reduction, alkylation, and trypsin digestion. In brief, samples were washed twice in 8 M urea, once in 8 M urea with 50 mM DTT, once in 8 M urea with 50 mM iodoaceteamide, and twice in 8 M Urea. The filter units were dried by centrifugation (14,000 g in 30 minutes) after every addition. Trypsin digestion was carried out with 0.25 μg sequencing grade trypsin from Sigma Aldrich in 50 mM ammonium bicarbonate overnight at 37 °C. The tryptic peptides were collected by centrifugation, acidified with TFA (0.1%) and micro-purified using POROS R2 column material (Applied Biosystems) packed in P200 pipette tips (Sarstedt).
(§3) LC-MS/MS analyses were performed on an EASY-nLC II system (Thermo Fisher Scientific) connected to a TripleTOF 5600+ mass spectrometer (Sciex) equipped with a NanoSpray III source (Sciex) and operated under Analyst TF 1.6.0 control.
(§4) The micro-purified tryptic peptides were dissolved in 0.1% formic acid, injected and trapped on an in-house packed trap column (2 cm × 100 μm I.D) with RP ReproSil-Pur C18-AQ 3 μm resin (Dr. Maisch GmbH). Peptides were eluted from the trap column and separated on a 15 cm analytical column (75 μm i.d.) packed in-house in a pulled emitter with RP ReproSil-Pur C18-AQ 3 μm resin (Dr. Maisch GmbH). Elution from the analytical column was performed with a linear gradient from 5% to 35% phase B (90% acetonitrile with 0.1% formic acid) over 20 min for protein identification and 50 min for quantitative analysis, respectively.
(§5) All samples were analysed three times, yielding nine MS/MS experiments for each fibril for both plasma and CSF. For the area-based extracted ion chromatogram (XIC) quantification, the acquisition method was set up as an information-dependent acquisition (IDA) experiment collecting up to 25 MS/MS spectra in each 1.6 sec cycle using an exclusion window of 6 sec.
(§6) XIC quantification was based on the average ion intensity of the three most abundant peptides for each protein. Only proteins quantified in at least four out of nine MS/MS experiments per fibril were included in the quantification. The total ion scores were visualized after grouping the proteins according to function (Figure S11).
(§7) For each MS/MS experiment, the ion intensities of the individual proteins were normalized to the total ion intensity of that MS/MS experiment to achieve a relative protein composition. The contribution of each protein was averaged over all nine MS/MS experiments (Tables 1 and 2).

[2] = system: T2, Ab2 fibrils; test: as above; format: binding, human; details: 50:1 w/w plasma protein:fibril
T2 construct: Two structurally distinct fibrils of the Aβ(1–40) peptide associated with AD
Method: as §1, with “Samples with fibril material (20 μg), plasma (500 μg) or CSF (40 μg) proteins were prepared in 200 μL PBS buffer with 5 mM EDTA.” left out
as §2, §3, §4, §5, §6, §7

[3] = target: T3, glucagon fibrils (Homo sapiens, UniProt P01275); test: as above; format: binding; details: 50:1 w/w plasma protein:fibril
T3 construct: fibrils of the peptide hormone glucagon
Method: as §1, with “Samples with fibril material (20 μg), plasma (500 μg) or CSF (40 μg) proteins were prepared in 200 μL PBS buffer with 5 mM EDTA.” left out
as §2, §3, §4, §5, §6, §7

[4] = target: T4, C-36 fibrils (Homo sapiens, UniProt P01009); test: as above; format: binding; details: 50:1 w/w plasma protein:fibril
T4 construct: the 36 residue C-terminal fragment of α1-antitrypsin (C-36)
Method: as §1, with “Samples with fibril material (20 μg), plasma (500 μg) or CSF (40 μg) proteins were prepared in 200 μL PBS buffer with 5 mM EDTA.” left out
as §2, §3, §4, §5, §6, §7

[5] = target: T5, αSN fibrils (Homo sapiens, UniProt P37840); test: as above; format: binding; design: key to Identification status of plasma protein bound: αSN: *: Identified, but not quantified; —: Not identified in any of the samples; details: for Relative composition of plasma proteins bound: αSN: 50:1 w/w plasma protein:fibril
Method: as §1, with “Samples with fibril material (20 μg), plasma (500 μg) or CSF (40 μg) proteins were prepared in 200 μL PBS buffer with 5 mM EDTA.” left out
as §2, §3, §4, §5, §6, §7

[6] = system: T6, FAS4-AD aggregates; test: as above; format: binding, human; details: 50:1 w/w plasma protein:fibril
T6 construct: aggregates of a mutated version of the FAS1-4 domain of TGFBIp
Method: as §1, with “Samples with fibril material (20 μg), plasma (500 μg) or CSF (40 μg) proteins were prepared in 200 μL PBS buffer with 5 mM EDTA.” left out
as §2, §3, §4, §5, §6, §7

[7] = system: T1, Ab1 fibrils; test: Fibril incubation with CSF, quantitative MS/MS of bound proteins; format: binding, human; details: 4:1 w/w CSF protein:fibril
Method: as §1, with “Samples with fibril material (20 μg), plasma (500 μg) or CSF (40 μg) proteins were prepared in 200 μL PBS buffer with 5 mM EDTA.” left out
as §2, §3, §4, §5, §6, §7

[8] = system: T2, Ab2 fibrils; test: as above; format: binding, human; design: key to Identification status of CSF protein bound: Ab2: *: Identified, but not quantified; —: Not identified in any of the samples; details: for Relative composition of CSF proteins bound: Ab2: 4:1 w/w CSF protein:fibril
Method: as §1, with “Samples with fibril material (20 μg), plasma (500 μg) or CSF (40 μg) proteins were prepared in 200 μL PBS buffer with 5 mM EDTA.” left out
as §2, §3, §4, §5, §6, §7

[9] = target: T3, glucagon fibrils; test: as above; format: binding; details: 4:1 w/w CSF protein:fibril
Method: as §1, with “Samples with fibril material (20 μg), plasma (500 μg) or CSF (40 μg) proteins were prepared in 200 μL PBS buffer with 5 mM EDTA.” left out
as §2, §3, §4, §5, §6, §7

[10] = target: T4, C-36 fibrils; test: as above; format: binding; details: 4:1 w/w CSF protein:fibril
Method: as §1, with “Samples with fibril material (20 μg), plasma (500 μg) or CSF (40 μg) proteins were prepared in 200 μL PBS buffer with 5 mM EDTA.” left out
as §2, §3, §4, §5, §6, §7

[11] = target: T5, αSN fibrils; test: as above; format: binding; design: key to Identification status of CSF protein bound: αSN: *: Identified, but not quantified; —: Not identified in any of the samples; details: for Relative composition of CSF proteins bound: αSN: 4:1 w/w CSF protein:fibril
Method: as §1, with “Samples with fibril material (20 μg), plasma (500 μg) or CSF (40 μg) proteins were prepared in 200 μL PBS buffer with 5 mM EDTA.” left out
as §2, §3, §4, §5, §6, §7

[12] = system: T6, FAS4-AD aggregates; test: as above; format: binding, human; design: key to Identification status of CSF protein bound: FAS4-AD: *: Identified, but not quantified; —: Not identified in any of the samples; details: for Relative composition of CSF proteins bound: FAS4-AD: 4:1 w/w CSF protein:fibril
Method: as §1, with “Samples with fibril material (20 μg), plasma (500 μg) or CSF (40 μg) proteins were prepared in 200 μL PBS buffer with 5 mM EDTA.” left out
as §2, §3, §4, §5, §6, §7

T4 sequence (P01009 383-418 limits assumed): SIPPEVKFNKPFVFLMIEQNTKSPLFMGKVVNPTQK
T3 sequence (P01275 53-81 limits assumed): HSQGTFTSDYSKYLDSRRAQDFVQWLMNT

Row | Substance | Relative composition of plasma proteins bound: Ab1 [1] | Relative composition of plasma proteins bound: Ab2 [2] | Relative composition of plasma proteins bound: Glucagon [3] | Relative composition of plasma proteins bound: C-36 [4] | Relative composition of plasma proteins bound: αSN [5] | Relative composition of plasma proteins bound: FAS4-AD [6] | Relative composition of CSF proteins bound: Ab1 [7] | Identification status of CSF protein bound: Ab2 ([8]; symbol cells) | Relative composition of CSF proteins bound: Glucagon [9] | Relative composition of CSF proteins bound: C-36 [10] | Identification status of CSF protein bound: αSN ([11]; symbol cells) | Identification status of CSF protein bound: FAS4-AD ([12]; symbol cells) | Identification status of plasma protein bound: αSN ([5]; symbol cells) | Relative composition of CSF proteins bound: Ab2 [8] | Relative composition of CSF proteins bound: αSN [11] | Relative composition of CSF proteins bound: FAS4-AD [12] | Relative composition of CSF proteins bound: FAS4-AD ([12]; listed as clusterin)
1 | Apolipoprotein A-II: plasma/CSF protein bound to fibrils | 1.1 ± 0.2 % of total protein | 1.2 ± 0.2 % of total protein | 6.2 ± 0.6 % of total protein | 1.9 ± 0.5 % of total protein | 0.9 ± 0.3 % of total protein | 1.8 ± 0.2 % of total protein | 1.0 ± 0.3 % of total protein | * | 0.6 ± 0.2 % of total protein | 0.9 ± 0.1 % of total protein | — | — |  |  |  |  | 
2 | Apolipoprotein D: plasma/CSF protein bound to fibrils | 0.1 ± 0.0 % of total protein | 0.3 ± 0.0 % of total protein | 0.3 ± 0.1 % of total protein | 0.9 ± 0.1 % of total protein |  | 1.1 ± 0.1 % of total protein | 8.7 ± 0.4 % of total protein |  | 1.8 ± 0.3 % of total protein | 9.0 ± 2.3 % of total protein |  |  | * | 11.2 ± 0.6 % of total protein | 3.4 ± 0.5 % of total protein | 5.7 ± 0.4 % of total protein | 
3 | Clusterin: plasma/CSF protein bound to fibrils | 1.1 ± 0.1 % of total protein | 2.2 ± 1.2 % of total protein | 0.5 ± 0.1 % of total protein | 3.5 ± 0.9 % of total protein | 1.6 ± 0.9 % of total protein | 7.9 ± 4.2 % of total protein | 9.4 ± 1.0 % of total protein |  | 2.4 ± 0.6 % of total protein | 8.6 ± 1.7 % of total protein |  |  |  | 6.9 ± 1.6 % of total protein | 12.2 ± 2.9 % of total protein | 22.8 ± 11.2 % of total protein | 22.8 % of total protein

Source: PMC6405930, “Conservation of the Amyloid Interactome Across Diverse Fibrillar Structures” (Scientific Reports, 2019)
